Measurements published in patent publication US7935699B2, “Pyrazole glucokinase activators” (Hoffmann-La Roche Inc., priority 2006, dated 2011).

What follows are molecules tested on Diet-Induced Obese (DIO) C57BL/6J mice (assay: Glucokinase activator in vivo screen, blood glucose in DIO mice). Settings: Mus musculus; 2 hours post 25 mg/kg oral dose in DIO mice, vs control; read-out: % gluc @ 2 H (% glucose lowering vs control).
Procedure: Glucokinase Activator in vivo Screen Protocol in Lean and Diet Induced Obese Mice: Lean or Diet-Induced Obese (DIO) C57BL/6J mice were orally dosed via gavage with Glucokinase (GK) activator (50 mg/kg body weight for lean mice, 25 mg/kg body weight for DIO mice) following a two hour fasting period. Blood glucose determinations were made four times during the six hour post-dose study period.
C57Bl/6J mice were obtained from Jackson Laboratory (Bar Harbor, Me.) and were maintained in a light-dark cycle with lights on from 0600-1800 hr. For studies in lean mice, the mice were received at age six weeks and given ad libitum access to control diet (LabDiet 5001 chow, PMI Nutrition, Brentwood, Mo.), and were at least age 11 weeks at the time of study. For studies in the DIO model, the mice were received at age five weeks and given ad libitum access to Bio-Serv F3282 High Fat Diet (Frenchtown, N.J.), and were at least age 16 weeks at the time of study. The experiments were conducted during the light phase of the light-dark cycle. Mice (n=6) are weighed and fasted for a two hour period prior to oral treatment. GK activators are formulated in Gelucire vehicle (Ethanol:Gelucire44/14:PEG400q.s. 4:66:30 v/w/v. For studies in lean mice, the mice were dosed orally with 5.0 μL per gram of body weight with 5 ml/kg×10.0 mg/ml formulation to equal a 50 mg/kg dose. For studies in DIO mice, the mice were dosed orally with 5.0 μL per gram of body weight with […] formulation to equal a 25 mg/kg dose. Immediately prior to dosing, a pre-dose (time zero) blood glucose reading was acquired by snipping off a small portion of the animal's tail (˜1 mm) and collecting 15 μL blood into a heparinized capillary tube for analysis. Following GK activator administration, additional blood glucose readings were taken at 2, 4 and 6 hours post dose from the same tail wound. Results were interpreted by comparing the mean blood glucose values of six vehicle treated mice with six GK activator treated mice over the six hour study duration.

Compound	change in vivo at 25 mg/kg [%]
CS(=O)(=O)c1ccc([C@@H](CC2CCCC2)C(=O)Nc2ccn(CC(=O)N3CCOCC3)n2)cc1Cl [Example 7, 2(R)-(3-Chloro-4-methanesulfonyl-phenyl)-3-cyclopentyl-N-[1-(2-morpholin-4-yl-2-oxo-ethyl)-1H-pyrazol-3-yl]-propionamide]	-15.3
CCS(=O)(=O)n1ccc(NC(=O)[C@H](CC2CCCC2)c2ccc(S(C)(=O)=O)c(Cl)c2)n1 [Example 33, 2(R)-(3-Chloro-4-methanesulfonyl-phenyl)-3-cyclopentyl-N-(1-ethanesulfonyl-1H-pyrazol-3-yl)-propionamide]	-9.8
CS(=O)(=O)c1ccc([C@@H](CC2CCCC2)C(=O)Nc2ccn(C[C@@H](O)CO)n2)cc1Cl [Example 35, 2-(R)-(3-Chloro-4-methanesulfonyl-phenyl)-3-cyclopentyl-N-[1-((R)-2,3-dihydroxy-propyl)-1H-pyrazol-3-yl]-propionamide]	-33.2
CS(=O)(=O)c1ccc([C@@H](CC2CCCC2)C(=O)Nc2ccn(CC3(O)CC3)n2)cc1Cl [Example 73, 2-(R)-(3-Chloro-4-methanesulfonyl-phenyl)-3-cyclopentyl-N-[1-(1-hydroxy-cyclopropylmethyl)-1H-pyrazol-3-yl]-propionamide]	-48.5
Cc1cc([C@@H](CC2CCCC2)C(=O)Nc2ccn(CCO)n2)ccc1S(C)(=O)=O [Example 78, 3-Cyclopentyl-N-[1-(2-hydroxy-ethyl)-1H-pyrazol-3-yl]-2(R)-(4-methanesulfonyl-3-methyl-phenyl)-propionamide]	-26.7
COCCn1ccc(NC(=O)[C@H](CC2CCCC2)c2ccc(S(C)(=O)=O)c(C)c2)n1 [Example 81, 3-Cyclopentyl-2(R)-(4-methanesulfonyl-3-methyl-phenyl)-N-[1-(2-methoxy-ethyl)-1H-pyrazol-3-yl]-propionamide]	-31.4
Cc1cc([C@@H](CC2CCCC2)C(=O)Nc2ccn(CCCO)n2)ccc1S(C)(=O)=O [Example 82, 3-Cyclopentyl-N-[1-(3-hydroxy-propyl)-1H-pyrazol-3-yl]-2(R)-(4-methanesulfonyl-3-methyl-phenyl)-propionamide]	-38.3

Each molecule was assayed against T1, Recombinant human liver GK1 (GST-GK) (Homo sapiens, UniProt P35557) (assay: Glucokinase in vitro assay (G6PDH-coupled, NADH at OD340)). Settings: 25° C., 5 mM D-glucose, 10% DMSO, GST-GK.
T1 construct: made in house; host or cells: E. coli
T1 sequence (P35557 1-466 isoform P35557-2): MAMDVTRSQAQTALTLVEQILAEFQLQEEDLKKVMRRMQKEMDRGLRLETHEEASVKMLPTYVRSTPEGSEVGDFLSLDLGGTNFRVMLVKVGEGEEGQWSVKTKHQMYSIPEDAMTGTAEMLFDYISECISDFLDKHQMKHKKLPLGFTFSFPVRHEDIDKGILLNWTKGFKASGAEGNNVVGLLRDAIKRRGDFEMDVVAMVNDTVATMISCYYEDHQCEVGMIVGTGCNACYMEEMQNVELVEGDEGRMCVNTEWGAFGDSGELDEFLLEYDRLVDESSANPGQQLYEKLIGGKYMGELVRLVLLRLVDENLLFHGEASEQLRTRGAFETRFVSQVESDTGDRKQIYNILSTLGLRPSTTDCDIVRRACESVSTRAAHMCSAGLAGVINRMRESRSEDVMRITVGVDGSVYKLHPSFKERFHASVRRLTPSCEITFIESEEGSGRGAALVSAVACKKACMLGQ
Assay type: biochemical
Procedure: Glucokinase In Vitro Assay Protocol: Glucokinase (GK) was assayed by coupling the production of glucose-6-phosphate to the generation of NADH with glucose-6-phosphate dehydrogenase (G6PDH, 0.75-1 kunits/mg; Boehringer Mannheim, Indianapolis, Ind.) from Leuconostoc mesenteroides as the coupling enzyme (Scheme 2).
Recombinant human liver GK1 was expressed in E. coli as a glutathione S-transferase fusion protein (GST-GK) [Liang et al, 1995] and was purified by chromatography over a glutathione-Sepharose 4B affinity column using the procedure provided by the manufacturer (Amersham Pharmacia Biotech, Piscataway, N.J.).
The assay was conducted at 25° C. in a flat bottom 96-well tissue culture plate from Costar (Cambridge, Mass.) with a final incubation volume of 120 μL. The incubation reaction contained the following: 25 mM Hepes buffer (pH 7.1), 25 mM KCl, 5 mM D-glucose, 1 mM ATP, 1.8 mM NAD, 2 mM MgCl2, 1 μM sorbitol-6-phosphate, 1 mM dithiothreitol, test drug or 10% DMSO, 1.8 unit/ml G6PDH, and GK (see below). All organic reagents were >98% pure and were from Boehringer Mannheim with the exceptions of D-glucose and Hepes which were from Sigma Chemical Co, St Louis, Mo. Test compounds were dissolved in DMSO and were added to the incubation reaction minus GST-GK in a volume of 12 μL to yield a final DMSO concentration of 10%. This mix was pre-incubated in the temperature controlled chamber of a SPECTRAmax 250 microplate spectrophotometer (Molecular Devices Corporation, Sunnyvale, Calif.) for 10 minutes to allow temperature equilibrium and then the reaction was started by the addition of 20 μL GST-GK.
After addition of enzyme, the increase in optical density (OD) at 340 nm was monitored over a 10 minute incubation period as a measure of GK activity. Sufficient GST-GK was added to produce an increase in OD340 of 0.08 to 0.1 units over the 10 minute incubation period in wells containing 10% DMSO but no test compound. Preliminary experiments established that the GK reaction was linear over this period of time even in the presence of activators that produced a 5-fold increase in GK activity. The GK activity in control wells was compared with the activity in wells containing test GK activators, and the concentration of activator that produced a 50% increase in the activity of GK, i.e., the SC1.5, was calculated.

Compound	SC1.5 (concentration of activator that produced a 50% increase in the activity of GK) [µM]
CS(=O)(=O)c1ccc([C@@H](CC2CCOCC2)C(=O)Nc2ccn(CCO)n2)cc1Cl (single isomer, unassigned) [Example 76]	5.3
CS(=O)(=O)c1ccc([C@@H](CC2CCCC2)C(=O)Nc2cc[nH]n2)cc1Cl [Example 2, 2(R)-(3-Chloro-4-methanesulfonyl-phenyl)-3-cyclopentyl-N-(1H-pyrazol-3-yl)-propionamide]	0.28
CC(C)(C)OC(=O)CCn1ccc(NC(=O)[C@H](CC2CCCC2)c2ccc(S(C)(=O)=O)c(Cl)c2)n1 [Example 8, 3-{3-[2(R)-(3-Chloro-4-methanesulfonyl-phenyl)-3-cyclopentyl-propionylamino]-pyrazol-1-yl}-propionic acid tert-butyl ester]	0.2
CCCNC(=O)CCn1ccc(NC(=O)[C@H](CC2CCCC2)c2ccc(S(C)(=O)=O)c(Cl)c2)n1 [Example 11, 2(R)-(3-Chloro-4-methanesulfonyl-phenyl)-3-cyclopentyl-N-[1-(2-propylcarbamoyl-ethyl)-1H-pyrazol-3-yl]-propionamide]	0.45
CS(=O)(=O)c1ccc([C@@H](CC2CCCC2)C(=O)Nc2ccn(Cc3ccccc3)n2)cc1Cl [Example 24, N-(1-Benzyl-1H-pyrazol-3-yl)-2(R)-(3-chloro-4-methanesulfonyl-phenyl)-3-cyclopentyl-propionamide]	0.083
COC(=O)c1ccc(Cn2ccc(NC(=O)[C@H](CC3CCCC3)c3ccc(S(C)(=O)=O)c(Cl)c3)n2)cc1 [Example 44, 4-{3-[2-(R)-(3-Chloro-4-methanesulfonyl-phenyl)-3-cyclopentyl-propionylamino]-pyrazol-1-ylmethyl}-benzoic acid methyl ester]	0.061
COCCCNC(=O)c1ccc(Cn2ccc(NC(=O)[C@H](CC3CCCC3)c3ccc(S(C)(=O)=O)c(Cl)c3)n2)cc1 [Example 47, 4-{3-[2-(R)-(3-Chloro-4-methanesulfonyl-phenyl)-3-cyclopentyl-propionylamino]-pyrazol-1-ylmethyl}-N-(3-methoxy-propyl)-benzamide]	0.03
CC(C)n1ccc(NC(=O)[C@H](CC2CCCC2)c2ccc(S(C)(=O)=O)c(Cl)c2)n1 [Example 56, 2-(R)(3-Chloro-4-methanesulfonyl-phenyl)-3-cyclopentyl-N-(1-isopropyl-1H-pyrazol-3-yl)-propionamide]	0.13
O=C(Nc1ccn(CCO)n1)[C@H](CC1CCCC1)c1cccc(C(F)(F)F)c1 [Example 79, 3-Cyclopentyl-N-[1-(2-hydroxy-ethyl)-1H-pyrazol-3-yl]-2(R)-(3-trifluoromethyl-phenyl)-propionamide]	1.433

Same assay, conditions: qualitative statement

Compound	glucokinase activation (in words)
CS(=O)(=O)c1ccc([C@@H](CC2CCOCC2)C(=O)Nc2ccn(CCO)n2)cc1Cl (single isomer, unassigned) [Example 76]	active
CC(C)(O)Cn1ccc(NC(=O)[C@H](CC2CCOCC2)c2ccc(Cl)c(Cl)c2)n1 (single isomer, unassigned) [Example 88]	active
CC(C)(O)Cn1ccc(NC(=O)[C@H](CC2COC2)c2ccc(S(C)(=O)=O)c(Cl)c2)n1 (single isomer, unassigned) [Example 92]	active
CC(C)(O)Cn1ccc(NC(=O)[C@H](CC2CCOCC2)c2ccc(S(C)(=O)=O)c(Cl)c2)n1 [Example 90, 2(R)-(3-Chloro-4-methanesulfonyl-phenyl)-N-[1-(2-hydroxy-2-methyl-propyl)-1H-pyrazol-3-yl]-3-(tetrahydro-pyran-4-yl)-propionamide]	active
